{"source": "patent US10421971B2", "about": "“Anti-tumor therapy” (The University of Chicago, priority 2014, dated 2019)", "key": {"[1]": {"system": "MC38 tumors", "assay": "MC38 tumor growth after local radiation in mice", "assay_type": "in vivo, mouse", "settings": "20 Gy, 10 μg intratumorally on day 2 and 6 after radiation, FIG. 21A, 21B", "method": "(§1) 1×10^6 MC38 tumor cells were subcutaneously injected into the flank of mice. Tumor volumes were measured along three orthogonal axes (a, b, and c) and calculated as tumor volume=abc/2. Tumors were allowed to grow for 9-10 days and treated by local radiation (Deng et al., 2014). Briefly, the body was protected with a lead cover and the tumor was exposed, allowing local radiation. Tumors were irradiated using RS-2000 Biological Irradiator (RAD SOURCE) at the dose of 20 Gy with 160 kV and 25 mA. For type I IFN blockade experiments, 200 μg anti-IFAR1 mAb was intratumorally injected on day 0 and 2 after radiation. For HMGB-1 blockade experiments, 200 μg anti-HMGB-1 mAb (clone 3B1, generated by inventors) was administered i.p. on day 0 and 3 after radiation. For CD8^+ T cell depletion experiments, […] anti-CD8 mAb (Clone 2.43, BioXCell) was delivered 5 times by i.p. injection every three days starting one day before radiation. For exogenous IFN-β treatment experiments, 1×10^10 viral particles of Ad-IFN-β (Burnette, B., et al., The Efficacy of Radiotherapy Relies upon Induction of Type I Interferon-Dependent Innate and Adaptive Immunity, Cancer Res Apr. 1, 2011 71; 2488; (doi: 10.1158/0008-5472.CAN-10-2820)) were intratumorally administered on day 2 after radiation. Ad-null was used as negative control. […]"}, "[2]": {"system": "tumor-specific CD8+ T cells", "assay": "ELISPOT of tumor-specific IFN-γ-secreting CD8+ T cells from tumor draining lymph nodes after radiation", "assay_type": "in vivo, mouse", "method": "as §1"}, "[3]": {"system": "BMDCs", "assay": "BMDC cross-priming of 2C CD8+ T cells after stimulation with irradiated MC38-SIY tumor cells (IFN-γ ELISPOT)", "assay_type": "cell-based, mouse", "method": "Single-cell suspensions of bone marrow cells were obtained from C57BL/6J, STING^−/− and IRF3^−/− mice. Bone marrow from cGAS^−/− mice was kindly provided by Dr. Zhijian J. Chen of University of Texas Southwestern Medical Center, Dallas. The cells were placed in 10 cm petri dish and cultured in RPMI-1640 medium containing 10% fetal bovine serum (DENVILLE), supplemented with 20 ng/ml GM-CSF. Fresh media with GM-CSF was added into culture on day 3. BMDCs (bone marrow-derived dendritic cells) were harvest for stimulation assay on day 7. 8×10^6 MC38-SIY^hi cells were plated into 10 cm cell culture dishes overnight, and then pretreated with 40 Gy and incubated for 5 hours. BMDCs were added and co-cultured with MC38-SIY^hi cells at the ratio of 1:1 in the presence of fresh GM-CSF for additional 8 hours. Subsequently purified CD11c cells with EasySep™ Mouse CD11c Positive Selection Kit II (STEMCELL) were incubated with isolated CD8^+ T cells from naive 2 C mice for three days. For the bypassing assay, 10 ng/ml murine IFN-β was added in the co-culture of BMDCs and tumor cells, or 100 μg/ml DMXAA was added into isolated CD11c^+ cells with additional 3 h incubation. For IFN-β detection, BMDCs were co-cultured with tumor cells at the ratio of 1:1 for additional 8 hours, and 1×10^6 cells/ml purified CD11c^+ cells were seed into 96-well plates for 48 hours.\nFor bone-marrow CD11c^+ cells functional assay, 2×10^4 purified CD11c^+ cells with were incubated with isolated CD8^+ T cells from naive 2 C mice with EasySep™ Mouse CD8a Positive Selection Kit (STEMCELL) for three days at the ratio of 1:10. For tumor-specific CD8^+ T cells functional assay, eight days after radiation, tumor DLNs were removed and CD8^+ T cells were purified. MC38 tumor cells were exposed to 20 ng/ml murine IFN-γ for 24 hr prior to plating with purified CD8^+ T. 2×10^5 CD8^+ T cells were incubated with MC38 at the ratio of 10:1 for 48 hours. 96-well HTS-IP plate (Millipore) was pre-coated with 2.5 μg/ml anti-IFN-γ antibody (clone R4-6A2, BD Pharmingen) overnight at 4° C. […]"}, "[4]": {"system": "IFNβ promoter", "assay": "IFNβ promoter dual-luciferase reporter assay (IFNβ-Luc / pRL-SV40) in HEK293 cells", "assay_type": "cell-based, human", "settings": "versus shNT, FIG. 6A", "source_text": "To measure IFNβ promoter activity, HEK293 cells were transiently co-transfected using Fugene (Roche) with pGL3-Ifnβ-Luc (Lin R, Genin P, Mamane Y, & Hiscott J (2000) Selective DNA binding and association with the CREB binding protein coactivator contribute to differential activation of alpha/beta interferon genes by interferon regulatory factors 3 and 7. Molecular and cellular biology 20(17):6342-6353) and an expression plasmid carrying the Renilla luciferase gene driven by the SV40 promoter (Promega). […] The following day, cells were irradiated at indicated dose and collected at indicated time in passive lysis buffer (Promega). Firefly and Renilla luciferase activities were measured using a dual-luciferase assay system (Promega). For siRNAs experiments, siRNA against LGP2 (see above) or non-targeting (Dharmacon) were transfected with RNAimax 24 h prior to transfection of luciferase/Renilla plasmids. Mean luciferase values were normalized and quantified from duplicate runs for each of at least three separate experiments.\nWe next assessed the role of LGP2 in regulating the IR-induced IFNβ response. HEK293 cells were transduced with lentiviral shRNA to stably reduce the levels of LGP2 or control non-targeting (shNT). Stably transduced cells were co-transfected with IFNβ-Luc and pRL-SV40, mock-treated or exposed to 6 or 12 Gy and collected 72 hrs after IR."}}}
{"compound": "Nc1nc2c(ncn2[C@@H]2O[C@@H]3COP(=O)(O)O[C@H]4[C@@H](O)[C@H](n5cnc6c(N)ncnc65)O[C@@H]4COP(=O)(O)O[C@@H]2[C@@H]3O)c(=O)[nH]1", "note": "[2′3′-cGAMP, cyclic [G(2′,5′)pA(3′,5′)p]]", "values": [{"measurement": "synergy with radiation on tumor burden", "setting": "[1]; STING−/− mice", "value": "abrogated"}, {"measurement": "tumor burden, combination with radiation", "setting": "[1]; WT mice, versus either treatment alone", "value": "effectively reduce tumor burden"}, {"measurement": "antitumor CD8+ T cell response induced by the combination with radiation", "setting": "[2]; STING−/− host, FIG. 21D", "value": "dampened"}, {"measurement": "number of tumor-specific IFN-γ-producing CD8+ T cells in DLNs, combination with radiation", "setting": "[2]; WT mice, 10 μg intratumorally on day 2 after 20 Gy, DLNs day 8, versus radiation or 2′3′-cGAMP alone, FIG. 21C", "value": "significantly increased"}]}
{"compound": "Cc1ccc2c(=O)c3cccc(CC(=O)O)c3oc2c1C", "note": "[DMXAA]", "values": [{"measurement": "function of STING−/− BMDCs (cross-priming of CD8+ T cells)", "setting": "[3]; STING−/− BMDCs stimulated with irradiated tumor cells, 10 ng/ml IFN-β or 100 μg/ml DMXAA, FIG. 18C", "value": "fails to rescue"}, {"measurement": "function of cGAS−/− BMDCs (cross-priming of CD8+ T cells)", "setting": "[3]; cGAS−/− BMDCs stimulated with irradiated tumor cells, 10 ng/ml IFN-β or 100 μg/ml DMXAA, FIG. 19D", "value": "restored"}]}
{"compound": "LGP2 shRNA: lentiviral pLKO.1 shRNA against LGP2, SEQ ID NO:3 ATTCTTGCGGTCATCGAACAG, Thermo Scientific", "values": [{"measurement": "IR-induced IFNβ reporter activity", "setting": "[4]; HEK293, 6 or 12 Gy, 72 hrs after IR", "value": "greatly increased"}, {"measurement": "IFNβ reporter activity", "setting": "[4]; HEK293, mock-treated", "value": "significant increase"}]}
{"compound": "siRNA-cGAS: Mission siRNA against murine cGAS, 5′-GAGGAAAUCCGCUGAGUCAdTdT-3′ (SEQ ID NO:8), Sigma (GAGGAAAUCCGCUGAGUCADTDT; dTdT 3' overhang, further chemistry not given here)", "values": [{"measurement": "function of DCs (cross-priming of CD8+ T cells)", "setting": "[3]; BMDCs transfected with 50 nM siRNA, versus non-target control, stimulated with irradiated tumor cells, FIG. 19B", "value": "greatly diminished"}]}
